The values below come from US7196110B2, “N-substituted tricyclic 3-aminopyrazoles as inhibitors for the treatment of cell proliferative disorders” (Janssen Phamaceutica N.V., priority 2002, dated 2007).

Where two headings read alike, the source gives them in different places.

In the assay the target is T1, PDGF-receptor beta enzyme comprising the tyrosine kinase domain (Homo sapiens, UniProt P09619).
T1 construct: from amino acid 545 to 1106 of GenBank Access NO: AAA36427
The assay can be described thus: Inhibition of PDGF-receptor kinase activity (cell-free, PLC1 peptide, 33P Flashplate). Particulars: for inhibition at 10 µM: read-out: Percent Inhibition @ 10 uM. The assay is classed as biochemical. The gist of the method:
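The IC50 is the inhibitor level halving kinase activity relative to inhibitor-free wells, measured as 33P captured on a streptavidin-bound biotin-PLC1 peptide. The reaction ran 60 min at 30 °C in pH 8 Tris buffer with 1 mM DTT, 5 μM ATP and the 545–1106 kinase-domain enzyme.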

The mark [1] stands for this setting: PDGF-R kinase activity, compound at 10 uM.
The mark [2] stands for this setting: PDGF-R kinase activity, read-out: IC50.
Setting [3] is: read-out: IC50 (μM) on PDGF-R kinase activity.

T1 sequence (P09619 545-1106): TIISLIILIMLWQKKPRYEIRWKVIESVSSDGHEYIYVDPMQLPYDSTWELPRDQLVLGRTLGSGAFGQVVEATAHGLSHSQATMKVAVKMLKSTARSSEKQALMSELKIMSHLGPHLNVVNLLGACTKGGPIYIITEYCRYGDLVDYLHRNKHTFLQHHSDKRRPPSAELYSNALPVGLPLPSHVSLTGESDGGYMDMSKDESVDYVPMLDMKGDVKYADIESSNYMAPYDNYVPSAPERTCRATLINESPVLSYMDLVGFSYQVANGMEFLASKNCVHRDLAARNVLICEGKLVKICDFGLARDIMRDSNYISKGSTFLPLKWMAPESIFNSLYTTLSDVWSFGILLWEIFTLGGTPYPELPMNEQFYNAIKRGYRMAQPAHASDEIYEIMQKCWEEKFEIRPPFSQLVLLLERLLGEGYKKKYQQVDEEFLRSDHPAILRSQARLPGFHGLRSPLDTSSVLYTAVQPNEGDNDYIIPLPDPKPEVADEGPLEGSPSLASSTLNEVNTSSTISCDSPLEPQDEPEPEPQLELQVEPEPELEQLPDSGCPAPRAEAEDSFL

For the compound `COC(=O)c1cccc(Nc2[nH]nc3c2Cc2cc4c(cc2-3)OCO4)c1` [Compound 127, 3-(2,9-Dihydro-5,7-dioxa-2,3-diaza-cyclopenta[a]-s-indacen-1-ylamino)-benzoic acid methyl ester], the inhibition at 10 µM under setting [1] is 89%. Under setting [2], the IC50 was determined as 0.421 µM.

Take `COC(=O)C(NC(=O)n1nc(Nc2cccc(F)c2)c2c1-c1cc(OC)c(OC)cc1C2)C(C)C` (stereo not shown) [Compound 530, 2-{[3-(3-Fluoro-phenylamino)-6,7-dimethoxy-4H-indeno[1,2-c]pyrazole-1-carbonyl]-amino}-3-methyl-butyric acid methyl ester]: the inhibition at 10 µM under setting [1] was 71.5%. In addition, the IC50 under setting [2] came out at 4.15 µM.

Take `COc1cc2c(cc1OC)-c1c(c(Nc3cccc(F)c3)nn1C(=O)NCCN1CCCC1)C2` [Compound 520, 3-(3-Fluoro-phenylamino)-6,7-dimethoxy-4H-indeno[1,2-c]pyrazole-1-carboxylic acid (2-pyrrolidin-1-yl-ethyl)-amide]: the inhibition at 10 µM under setting [1] is 100%. In addition, the IC50 under setting [2] was determined as 0.0653 µM.

On to `COCCCOc1ccc2c(c1)Cc1c-2n[nH]c1Nc1cccc(Br)c1` [Compound 141, (3-Bromo-phenyl)-[6-(3-methoxy-propoxy)-2,4-dihydro-indeno[1,2-c]pyrazol-3-yl]-amine], for which, under setting [1], the inhibition at 10 µM amounted to 83.5%. Further, the IC50 under setting [2] is 0.319 µM.

Turning to `COc1cc2c(cc1OC)-c1n[nH]c(Nc3ncccc3Br)c1C2` [Compound 582, (3-Bromo-pyridin-2-yl)-(6,7-dimethoxy-2,4-dihydro-indeno[1,2-c]pyrazol-3-yl)-amine], the inhibition at 10 µM under setting [1] worked out at 82.5%. Besides, the IC50 under setting [3] was 1.25 µM.

For `COc1cccc2c1Cc1c-2n[nH]c1Nc1cccc(S(N)(=O)=O)c1` [Compound 418, 3-(5-Methoxy-2,4-dihydro-indeno[1,2-c]pyrazol-3-ylamino)-benzenesulfonamide], the inhibition at 10 µM under setting [1] worked out at 82.5%. The IC50 under setting [2] is 0.892 µM.

On to `CCOc1cc2c(cc1OCCCO)-c1n[nH]c(Nc3ccc(F)c(Cl)c3)c1C2` [Compound 368, 3-[3-(3-Chloro-4-fluoro-phenylamino)-6-ethoxy-2,4-dihydro-indeno[1,2-c]pyrazol-7-yloxy]-propan-1-ol], for which the inhibition at 10 µM under setting [1] turned out to be 89.5%. Further, under setting [2], the concentration for half-maximal inhibition (IC50) amounted to 0.0629 µM.

As for `CCOc1cc2c(cc1OCC)-c1n[nH]c(NCc3ccccc3OC(F)(F)F)c1C2` [Compound 301, (6,7-Diethoxy-2,4-dihydro-indeno[1,2-c]pyrazol-3-yl)-(2-trifluoromethoxy-benzyl)-amine], the inhibition at 10 µM under setting [1] was determined as 72%.

For the compound `CN(C)c1ccc(Nc2[nH]nc3c2Cc2cc(Cl)ccc2-3)cc1` [Compound 196, N-(6-Chloro-2,4-dihydro-indeno[1,2-c]pyrazol-3-yl)-N′,N′-dimethyl-benzene-1,4-diamine], the inhibition at 10 µM under setting [1] stood at 70%. For the same compound, the IC50 under setting [2] is 1.29 µM.

For `COc1cccc([C@H](C)Nc2[nH]nc3c2Cc2cc(OC)c(OC)cc2-3)c1` (single isomer, unassigned) [Compound 324, (6,7-Dimethoxy-2,4-dihydro-indeno[1,2-c]pyrazol-3-yl)-[1-(3-methoxy-phenyl)-ethyl]-amine], the inhibition at 10 µM under setting [1] was determined as 74.5%. Further, the IC50 under setting [2] was found to be 1.32 µM.

For the compound `CCOc1cccc(Nc2[nH]nc3c2C(CC)c2cc(OC)c(OC)cc2-3)c1` (stereo not shown) [Compound 505, (3-Ethoxy-phenyl)-(4-ethyl-6,7-dimethoxy-2,4-dihydro-indeno[1,2-c]pyrazol-3-yl)-amine], the inhibition at 10 µM under setting [1] worked out at 97%. Under setting [2], the IC50 stood at 0.134 µM.

With `COc1cc2c(cc1OC)-c1n[nH]c(Nc3ccc(N(C)C)cc3)c1C2` [Compound 40], the inhibition at 10 µM under setting [1] came to 63%. Under setting [2], the IC50 turned out to be 5.95 µM.

Regarding `COc1cc2c(cc1OC)-c1c(c(Nc3cccc(F)c3)nn1CCO)C2` [Compound 572, 2-[3-(3-Fluoro-phenylamino)-6,7-dimethoxy-4H-indeno[1,2-c]pyrazol-1-yl]-ethanol], the inhibition at 10 µM under setting [1] was determined as 67%. Also, under setting [3], the IC50 turned out to be 7.33 µM.

Consider `COc1cc2c(cc1OC)-c1n[nH]c(NCCN3CCOCC3)c1C2` [Compound 69, (6,7-Dimethoxy-2,4-dihydro-indeno[1,2-c]pyrazol-3-yl)-(2-morpholin-4-yl-ethyl)-amine], for which the inhibition at 10 µM under setting [1] stood at 18%.

In the case of `COc1ccc2c(c1)Cc1c-2n[nH]c1Nc1ccc(OC)c(OC)c1` [Compound 86, (3,4-Dimethoxy-phenyl)-(6-methoxy-2,4-dihydro-indeno[1,2-c]pyrazol-3-yl)-amine], under setting [1], the inhibition at 10 µM amounted to 57%. Besides, under setting [2], the IC50 amounted to 2.53 µM.

For `COc1cc2c(cc1OC)C(C)c1c-2n[nH]c1NCc1c(Cl)cccc1Cl` (single isomer, unassigned) [Compound 586, (2,6-Dichloro-benzyl)-(6,7-dimethoxy-4-methyl-2,4-dihydro-indeno[1,2-c]pyrazol-3-yl)-amine], the inhibition at 10 µM under setting [1] turned out to be 100%. Also, the IC50 under setting [3] was 0.0278 µM.

For `COCCCOc1ccc2c(c1)Cc1c-2n[nH]c1Nc1cccc(F)c1` [Compound 138, (3-Fluoro-phenyl)-[6-(3-methoxy-propoxy)-2,4-dihydro-indeno[1,2-c]pyrazol-3-yl]-amine], under setting [1], the inhibition at 10 µM was found to be 79.5%. Under setting [2], the IC50 stood at 0.301 µM.

Take `CCOc1cc2c(cc1OCC(O)CN1CCCC1)-c1n[nH]c(Nc3cccc(OC)c3)c1C2` (stereo not shown) [Compound 462, 1-[6-Ethoxy-3-(3-methoxy-phenylamino)-2,4-dihydro-indeno[1,2-c]pyrazol-7-yloxy]-3-pyrrolidin-1-yl-propan-2-ol]: the inhibition at 10 µM under setting [1] is 99%. Under setting [2], the IC50 is 0.00215 µM.

In the case of `Cc1ccccc1CNc1[nH]nc2c1Cc1cc(F)ccc1-2` [Compound 378, (6-Fluoro-2,4-dihydro-indeno[1,2-c]pyrazol-3-yl)-(2-methyl-benzyl)-amine], under setting [1], the inhibition at 10 µM is 94.5%. For the same compound, the 50% inhibitory concentration (IC50) under setting [2] was 0.467 µM.

Consider `CN(C)CCCOc1ccc2c(c1)Cc1c-2n[nH]c1Nc1cc(F)ccc1F` [Compound 163, (2,5-Difluoro-phenyl)-[6-(3-dimethylamino-propoxy)-2,4-dihydro-indeno[1,2-c]pyrazol-3-yl]-amine], for which the inhibition at 10 µM under setting [1] worked out at 32%. For the same compound, under setting [2], the IC50 was determined as 22.7 µM.

With `COc1cc2c(cc1OC)-c1n[nH]c(Nc3ccc(Br)cn3)c1C2` [Compound 583, (5-Bromo-pyridin-2-yl)-(6,7-dimethoxy-2,4-dihydro-indeno[1,2-c]pyrazol-3-yl)-amine], the inhibition at 10 µM under setting [1] came to 82%. Further, the concentration for half-maximal inhibition (IC50) under setting [3] stood at 1.1 µM.

In the case of `COc1cc2c(cc1OC)-c1n[nH]c(Nc3ccccc3C(C)C)c1C2` [Compound 57, (6,7-Dimethoxy-2,4-dihydro-indeno[1,2-c]pyrazol-3-yl)-(2-isopropyl-phenyl)-amine], the inhibition at 10 µM under setting [1] worked out at 71%. Also, the IC50 under setting [2] was 2.15 µM.

In the case of `COc1ccc2c(c1)Cc1c-2n[nH]c1Nc1cc(F)ccc1F` [Compound 87, (2,5-Difluoro-phenyl)-(6-methoxy-2,4-dihydro-indeno[1,2-c]pyrazol-3-yl)-amine], the inhibition at 10 µM under setting [1] worked out at 91%. Besides, under setting [2], the IC50 stood at 0.069 µM.

As to `CCC1c2cc(OC)c(OC)cc2-c2[nH]nc(Nc3cccc(Br)c3)c21` (single isomer, unassigned) [Compound 482, (3-Bromo-phenyl)-(4-ethyl-6,7-dimethoxy-1,4-dihydro-indeno[1,2-c]pyrazol-3-yl)-amine], where the note is “PDGF-R kinase activity, compound at 10 uM, 10 µM”, the “Percent Inhibition @ 10 uM” value stood at 100%. Also, under setting [2], the half-inhibitory concentration (IC50) came out at 0.0386 µM.

For the compound `COc1cc2c(cc1OC)-c1n[nH]c(NCc3cccc(F)c3)c1C2` [Compound 327, (6,7-Dimethoxy-2,4-dihydro-indeno[1,2-c]pyrazol-3-yl)-(3-fluoro-benzyl)-amine], the inhibition at 10 µM under setting [1] turned out to be 52%. The IC50 under setting [2] was 10.6 µM.

For `COc1cccc(CNc2[nH]nc3c2Cc2cc(OC)c(OC)cc2-3)c1` [Compound 225, (6,7-Dimethoxy-2,4-dihydro-indeno[1,2-c]pyrazol-3-yl)-(3-methoxy-benzyl)-amine], the inhibition at 10 µM under setting [1] was 90%. Moreover, under setting [2], the IC50 was determined as 0.0744 µM.

In the case of `CN(C)CCCOc1cccc2c1Cc1c-2n[nH]c1Nc1cccc(Cl)c1` [Compound 72, (3-Chloro-phenyl)-[5-(3-dimethylamino-propoxy)-2,4-dihydro-indeno[1,2-c]pyrazol-3-yl]-amine], under setting [1], the inhibition at 10 µM stood at 96%. In addition, under setting [2], the IC50 was 0.283 µM.

Turning to `FC(F)(F)Oc1cccc(Nc2[nH]nc3c2Cc2cc(Br)ccc2-3)c1` [Compound 154, (6-Bromo-2,4-dihydro-indeno[1,2-c]pyrazol-3-yl)-(3-trifluoromethoxy-phenyl)-amine], the inhibition at 10 µM under setting [1] worked out at 29%. Besides, the IC50 under setting [2] was 41.6 µM.

As for `CC(C)Oc1cc2c(cc1OC(C)C)C(C)c1c-2n[nH]c1Nc1cccc(F)c1` (stereo not shown) [Compound 351, (6,7-Diisopropoxy-4-methyl-2,4-dihydro-indeno[1,2-c]pyrazol-3-yl)-(3-fluoro-phenyl)-amine], the inhibition at 10 µM under setting [1] was found to be 93%. Also, the IC50 under setting [2] is 0.4 µM.

For `C=C(C)C(=O)OCCNC(=O)n1nc2c(c1Nc1cccc(F)c1)Cc1cc(OC)c(OC)cc1-2` [Compound 528, 2-Methyl-acrylic acid 2-{[3-(3-fluoro-phenylamino)-6,7-dimethoxy-4H-indeno[1,2-c]pyrazole-2-carbonyl]-amino}-ethyl ester], the inhibition at 10 µM under setting [1] is 93.5%. Under setting [2], the IC50 amounted to 0.196 µM.

`COC(=O)Cn1nc2c(c1Nc1cccc(F)c1)Cc1cc(OC)c(OC)cc1-2` [Compound 602, [3-(3-Fluoro-phenylamino)-6,7-dimethoxy-4H-indeno[1,2-c]pyrazol-2-yl]-acetic acid methyl ester]: the inhibition at 10 µM under setting [1] turned out to be 40%.

Turning to `c1ccc(Nc2[nH]nc3c2Cc2ccccc2-3)cc1` [Compound 1], the inhibition at 10 µM under setting [1] was determined as 91%. In addition, the IC50 under setting [2] stood at 0.317 µM.

A word on the inhibition: it is the change of the read-out against control, counted positive when it falls. In general, IC50 refers to the concentration that inhibits the measured activity by half.
